Assay results published in PMC11589570, “Critical assessment of LC3/GABARAP ligands used for degrader development and ligandability of LC3/GABARAP binding pockets” (Nature Communications, 2024).
Where “and” joins values, the source holds several entries; their conditions need not be identical. Identical values can stand only once.

How the values were obtained:
[1] = biological target: T1, LC3A (Homo sapiens, UniProt Q9H492); assay: FP assay with Cy5-labelled p62 LIR tracer (protein titration and tracer displacement); type: binding; conditions: two replicate columns per compound
[2] = biological target: LC3B (Homo sapiens, UniProt Q9GZQ8); assay: as above; type: binding; conditions: for normalized FP signal, p62 LIR tracer displacement: LC3B; for compound titration LC3B (displacement curve, FP signal): two replicate columns per compound
[3] = biological target: T1, LC3A; assay: Isothermal titration calorimetry (ITC); type: binding; conditions: LC3A
Text: To minimize nonspecific dilution heat effects, DMSO concentrations in the protein and compound samples were matched. […] For this protocol, the chamber was pre-equilibrated with the protein, and the test compounds were titrated while continuously measuring the rate of exothermic heat evolution. The heat of binding was integrated, corrected, and fitted to an independent single-binding site model based on the manufacturer’s instructions, from which thermodynamic parameters (ΔH and TΔS), equilibrium association and dissociation constants (KA and KD, respectively), and stoichiometry (n) were calculated using TA Instruments NanoAnalyze software.

[4] = system: RPE1 cells; assay: Cell growth assay (IncuCyte confluence over 72 h); type: cell-based; conditions: listed as KT1
Protocol: Cell growth assay: Cell confluence (phase) from RPE1 (hTERT RPE-1, ATCC CLR_4000) or U2OS (ATCC, HTB-96) cell lines were monitored over time with the IncuCyte S3 (Sartiorius, Germany) in 384-well plates in 50 ul DMEM media, supplemented with 10% Fetal Bovine Serum (FBS) 1% penicillin/Streptomycin and incubated 24 h before treatment. Experiment was performed as described in Cano-Franco et al.. 50 μl of media containing either 2× final concentration of indicated compounds in or control compounds (final conc.: 0.1% DMSO, 250 nM Torin1, 200 ng/mL Bafilomycin) were added and images were taken every two hours over 72 h. Cell confluence is represented as % of area covered by cells. Each data point represents the average ratio or confluence obtained from three individual wells of the plate.

[5] = log10 concentration [M] -3.82391
[6] = log10 concentration [M] -4.1549
[7] = log10 concentration [M] -4.60206
[8] = log10 concentration [M] -5.30103
[9] = log10 concentration [M] -5.69897
[10] = log10 concentration [M] -6.22185
[11] = log10 concentration [M] -6.69897
[12] = log10 concentration [M] -7.30103
[13] = log10 concentration [M] -7.79588
[14] = log10 concentration [M] -8.08092

- compound titration LC3A (displacement curve, FP signal) [1, 5]: 97.6316 and 96.3158
- compound titration LC3A (displacement curve, FP signal) [1, 6]: 102.368 and 100.263
- compound titration LC3A (displacement curve, FP signal) [1, 7]: 93.6842 and 106.579
- compound titration LC3A (displacement curve, FP signal) ([1]; log10 concentration [M] -5): 101.842 and 99.2105
- compound titration LC3A (displacement curve, FP signal) [1, 8]: 105 and 102.368
- compound titration LC3A (displacement curve, FP signal) [1, 9]: 101.842 and 94.2105
- compound titration LC3A (displacement curve, FP signal) [1, 10]: 98.9474 and 95.2632
- compound titration LC3A (displacement curve, FP signal) [1, 11]: 98.4211
- compound titration LC3A (displacement curve, FP signal) [1, 12]: 101.842 and 96.5789
- compound titration LC3A (displacement curve, FP signal) [1, 13]: 97.8947 and 91.3158
- compound titration LC3A (displacement curve, FP signal) [1, 14]: 102.105 and 89.4737
- normalized FP signal, p62 LIR tracer displacement [2, 5]: 74.4737 and 78.6842
- normalized FP signal, p62 LIR tracer displacement [2, 6]: 94.4737 and 95.2632
- normalized FP signal, p62 LIR tracer displacement [2, 7]: 95 and 102.105
- normalized FP signal, p62 LIR tracer displacement ([2]; log10 concentration [M] -5): 92.8947 and 101.053
- normalized FP signal, p62 LIR tracer displacement [2, 8]: 97.1053 and 100
- normalized FP signal, p62 LIR tracer displacement [2, 9]: 93.6842 and 95.5263
- normalized FP signal, p62 LIR tracer displacement [2, 10]: 100 and 92.1053
- normalized FP signal, p62 LIR tracer displacement [2, 11]: 96.8421 and 99.4737
- normalized FP signal, p62 LIR tracer displacement [2, 12]: 97.8947 and 102.368
- normalized FP signal, p62 LIR tracer displacement [2, 13]: 96.5789 and 100
- normalized FP signal, p62 LIR tracer displacement [2, 14]: 100.789 and 96.5789
- compound titration LC3B (displacement curve, FP signal) [2, 5]: 74.4737 and 78.6842
- compound titration LC3B (displacement curve, FP signal) [2, 6]: 94.4737 and 95.2632
- compound titration LC3B (displacement curve, FP signal) [2, 7]: 95 and 102.105
- compound titration LC3B (displacement curve, FP signal) ([2]; log10 concentration [M] -5): 92.8947 and 101.053
- compound titration LC3B (displacement curve, FP signal) [2, 8]: 97.1053 and 100
- compound titration LC3B (displacement curve, FP signal) [2, 9]: 93.6842 and 95.5263
- compound titration LC3B (displacement curve, FP signal) [2, 10]: 100 and 92.1053
- compound titration LC3B (displacement curve, FP signal) [2, 11]: 96.8421 and 99.4737
- compound titration LC3B (displacement curve, FP signal) [2, 12]: 97.8947 and 102.368
- compound titration LC3B (displacement curve, FP signal) [2, 13]: 96.5789 and 100
- compound titration LC3B (displacement curve, FP signal) [2, 14]: 100.789 and 96.5789
- outcome of ITC titration [3]: induced protein precipitation
Compound: Cc1ccc(C)c(S(=O)(=O)Nc2cc(SCC(=O)O)c(O)c3ccccc23)c1 [compound 8]
- RPE1 cell growth ([4]; 100 nM, 0 h): 18 and 24 and 13
- RPE1 cell growth ([4]; 100 nM, 6 h): 23 and 30 and 15
- RPE1 cell growth ([4]; 100 nM, 8 h): 25 and 30 and 16
- RPE1 cell growth ([4]; 100 nM, 10 h): 25 and 32 and 17
- RPE1 cell growth ([4]; 100 nM, 12 h): 24 and 34 and 18
- RPE1 cell growth ([4]; 1 uM, 0 h): 19 and 20 and 26
- RPE1 cell growth ([4]; 1 uM, 2 h): 20 and 28
- RPE1 cell growth ([4]; 1 uM, 4 h): 20 and 25 and 32
- RPE1 cell growth ([4]; 1 uM, 6 h): 21 and 26 and 32
- RPE1 cell growth ([4]; 1 uM, 8 h): 22 and 29 and 35
- RPE1 cell growth ([4]; 1 uM, 10 h): 25 and 29 and 37
- RPE1 cell growth ([4]; 1 uM, 12 h): 27 and 32 and 38
- RPE1 cell growth ([4]; 1 uM, 14 h): 29
- RPE1 cell growth ([4]; 3 uM, 0 h): 20 and 28 and 21
- RPE1 cell growth ([4]; 3 uM, 2 h): 23 and 30 and 21
- RPE1 cell growth ([4]; 3 uM, 4 h): 25 and 34 and 21
- RPE1 cell growth ([4]; 3 uM, 6 h): 25 and 34 and 23
- RPE1 cell growth ([4]; 3 uM, 8 h): 29 and 35 and 24
- RPE1 cell growth ([4]; 3 uM, 10 h): 29 and 37 and 26
- RPE1 cell growth ([4]; 3 uM, 12 h): 30 and 38 and 28
- RPE1 cell growth ([4]; 3 uM, 14 h): 32 and 42 and 30
- RPE1 cell growth ([4]; 5 uM, 0 h): 17 and 27 and 20
- RPE1 cell growth ([4]; 5 uM, 2 h): 20 and 30
- RPE1 cell growth ([4]; 5 uM, 4 h): 22 and 33 and 21
- RPE1 cell growth ([4]; 5 uM, 6 h): 22 and 36
- RPE1 cell growth ([4]; 5 uM, 8 h): 26 and 37 and 23
- RPE1 cell growth ([4]; 5 uM, 10 h): 25 and 39
- RPE1 cell growth ([4]; 5 uM, 12 h): 28 and 40 and 27
- RPE1 cell growth ([4]; 5 uM, 14 h): 29 and 45
- RPE1 cell growth ([4]; 10 uM, 0 h): 17 and 22 and 19
- RPE1 cell growth ([4]; 10 uM, 2 h): 20 and 23
- RPE1 cell growth ([4]; 10 uM, 4 h): 23 and 26 and 20
- RPE1 cell growth ([4]; 10 uM, 6 h): 24 and 31 and 22
- RPE1 cell growth ([4]; 10 uM, 8 h): 25 and 29 and 23
- RPE1 cell growth ([4]; 10 uM, 10 h): 26 and 28 and 25
- RPE1 cell growth ([4]; 10 uM, 12 h): 28 and 32 and 27
